Assay results taken from patent publication US9850225B2, “Compounds useful as immunomodulators” (BRISTOL-MYERS SQUIBB COMPANY, priority 2014, dated 2017).
Like-named read-outs stand apart in the source and are kept apart here.

Target: PD-1/PD-L1 interaction (PD-1-Ig / PD-L1-His) (Homo sapiens (Human), UniProt Q9NZQ7)
Experiment: PD-1/PD-L1 Homogenous Time-Resolved Fluorescence (HTRF) binding assay
Details: PD-1/PD-L1 HTRF binding assay, read-out: Range or IC50
Outline: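 Human PD-L1-His (10 nM final) was pre-incubated with inhibitor for 15 min, then PD-1-Ig (20 nM final) was added for a further 15 min in dPBS with 0.1% BSA and 0.05% Tween-20. Binding was detected by HTRF using Eu-cryptate anti-Ig (1 nM) and APC anti-His (20 nM).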

Chain of PD-1/PD-L1 interaction (PD-1-Ig / PD-L1-His) (Q9NZQ7 other isoform, or with tags, fused parts or gaps): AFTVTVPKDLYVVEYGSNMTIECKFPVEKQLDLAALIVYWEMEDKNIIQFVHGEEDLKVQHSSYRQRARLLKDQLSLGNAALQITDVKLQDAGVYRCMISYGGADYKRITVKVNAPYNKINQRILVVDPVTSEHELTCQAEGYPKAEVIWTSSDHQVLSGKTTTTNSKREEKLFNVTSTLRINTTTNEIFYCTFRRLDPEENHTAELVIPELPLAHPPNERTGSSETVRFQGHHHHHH

**Q.** Which IC50 (value given as range class) does the source give for Cc1c(COc2cc(OCc3cncc(C#N)c3)c(CN3CCCC[C@H]3C(=O)NS(=O)(=O)C(C)C)cc2Cl)cccc1-c1ccc2c(c1)OCCO2 [Example 1260, (S)-1-(5-chloro-2-((5-cyanopyridin-3-yl)methoxy)-4-((3-(2,3-dihydrobenzo[b][1,4]dioxin-6-yl)-2-methylbenzyl)oxy)benzyl)-N-(isopropylsulfonyl)piperidine-2-carboxamide] here?
**A.** 0.6 to 10 nM

**Q.** With Cc1c(COc2cc(OCc3cccc(C#N)c3)c(CN[C@@](C)(CO)C(=O)O)cc2Cl)cccc1-c1ccc2c(c1)OCCO2 [Example 1245, (S)-2-((5-chloro-2-((3-cyanobenzyl)oxy)-4-((3-(2,3-dihydrobenzo[b][1,4]dioxin-6-yl)-2-methylbenzyl)oxy)benzyl)amino)-3-hydroxy-2-methylpropanoic acid] as the molecule, how does the IC50 (value given as range class) read?
**A.** 0.6 to 10 nM

**Q.** With CC(=O)Nc1cc(COc2cc(OCc3cccc(-c4ccc5c(c4)OCCO5)c3C)c(Cl)cc2C=O)ccn1 [Example 3010, N-(4-((4-chloro-5-((3-(2,3-dihydrobenzo[b][1,4]dioxin-6-yl)-2-methylbenzyl)oxy)-2-formylphenoxy)methyl)pyridin-2-yl)acetamide] as the molecule, how does the IC50 (value given as range class) read?
**A.** 100 to 20000 nM

**Q.** For CC(=O)NCCNCc1cc(C)c(OCc2cccc(-c3ccc4c(c3)OCCO4)c2C)cc1OCc1ccc(F)c(C#N)c1 [Example 1271, N-(2-((2-((3-cyano-4-fluorobenzyl)oxy)-4-((3-(2,3-dihydrobenzo[b][1,4]dioxin-6-yl)-2-methylbenzyl)oxy)-5-methylbenzyl)amino)ethyl)acetamide], which IC50 (value given as range class) is on record?
**A.** 0.6 to 10 nM

**Q.** With CSC[C@H](NCc1cc(Cl)c(OCc2cccc(-c3ccc4c(c3)OCCO4)c2C)cc1OCc1cccc(C#N)c1)C(=O)O [Example 1160, (R)-2-((5-chloro-2-((3-cyanobenzyl)oxy)-4-((3-(2,3-dihydrobenzo[b][1,4]dioxin-6-yl)-2-methylbenzyl)oxy)benzyl)amino)-3-(methylthio)propanoic acid] as the molecule, how does the IC50 (value given as range class) read?
**A.** 10 to 100 nM

**Q.** Which IC50 (value given as range class) does the source give for Cc1cc(CNC[C@@H](O)CC(=O)O)c(OCc2ccc(F)c(C#N)c2)cc1OCc1cccc(-c2ccc3c(c2)OCCO3)c1C [Example 1270, (S)-4-((2-((3-cyano-4-fluorobenzyl)oxy)-4-((3-(2,3-dihydrobenzo[b][1,4]dioxin-6-yl)-2-methylbenzyl)oxy)-5-methylbenzyl)amino)-3-hydroxybutanoic acid] here?
**A.** 0.6 to 10 nM

**Q.** With Cc1c(COc2cc(OCc3cncc(C#N)c3)c(CNC[C@@H](O)CC(=O)O)cc2Cl)cccc1-c1ccc2c(c1)OCCO2 [Example 1250, (S)-4-((5-chloro-2-((5-cyanopyridin-3-yl)methoxy)-4-((3-(2,3-dihydrobenzo[b][1,4]dioxin-6-yl)-2-methylbenzyl)oxy)benzyl)amino)-3-hydroxybutanoic acid] as the molecule, how does the IC50 (numeric value) read?
**A.** 1.19 nM

**Q.** Which IC50 (value given as range class) does the source give for CC(=O)NCCNCc1cc(C)c(OCc2cccc(-c3ccc4c(c3)OCCO4)c2C)cc1OCCCCC#N [Example 1294, N-(2-(2-(4-cyanobutoxy)-4-(3-(2,3-dihydrobenzo[b][1,4]dioxin-6-yl)-2-methylbenzyloxy)-5-methylbenzylamino)ethyl)acetamide] here?
**A.** 10 to 100 nM

**Q.** How did the IC50 (value given as range class) turn out when CC(=O)NCCNCc1ccc(OCc2cccc(-c3ccccc3)c2C)cc1OCc1cc(F)ccc1F [Example 1060, N-(2-((2-((2,5-difluorobenzyl)oxy)-4-((2-methyl-[1,1′-biphenyl]-3-yl)methoxy)benzyl)amino)ethyl)acetamide] was run?
**A.** 100 to 20000 nM

**Q.** How did the IC50 (value given as range class) turn out when CC(=O)NCCNCc1ccc(OCc2cccc(-c3ccccc3)c2C)cc1OCc1ccc2cn[nH]c2c1 [Example 1102, N-(2-((2-((1H-indazol-6-yl)methoxy)-4-((2-methyl-[1,1′-biphenyl]-3-yl)methoxy)benzyl)amino)ethyl)acetamide] was run?
**A.** 100 to 20000 nM

**Q.** With COc1cc(OCc2cccc(-c3ccccc3)c2C)cc(OCc2cccc(C#N)c2)c1CN[C@H](CO)C(=O)O [Example 1134, (R)-2-((2-((3-cyanobenzyl)oxy)-6-methoxy-4-((2-methyl-[1,1′-biphenyl]-3-yl)methoxy)benzyl)amino)-3-hydroxypropanoic acid] as the molecule, how does the IC50 (value given as range class) read?
**A.** 0.6 to 10 nM

**Q.** With N#Cc1cccc(COc2cc(OCc3cccc(-c4ccc5c(c4)OCCO5)c3C#N)c(Br)cc2CN[C@@H](CO)C(=O)O)c1 [Example 1312, (S)-2-((5-bromo-4-((2-cyano-3-(2,3-dihydrobenzo[b][1,4]dioxin-6-yl)benzyl)oxy)-2-((3-cyanobenzyl)oxy)benzyl)amino)-3-hydroxypropanoic acid] as the molecule, how does the IC50 (value given as range class) read?
**A.** 0.6 to 10 nM

**Q.** With Cc1c(COc2cc(OCc3cccc(C#N)c3)c(CNC[C@@H](O)CC(=O)O)cc2Cl)cccc1-c1ccc2c(c1)OCCO2 [Example 1246, (S)-4-((5-chloro-2-((3-cyanobenzyl)oxy)-4-((3-(2,3-dihydrobenzo[b][1,4]dioxin-6-yl)-2-methylbenzyl)oxy)benzyl)amino)-3-hydroxybutanoic acid] as the molecule, how does the IC50 (value given as range class) read?
**A.** 0.6 to 10 nM

**Q.** For Cc1cc(CNC[C@@H](O)CC(=O)O)c(OCc2cncc(C#N)c2)cc1OCc1cccc(-c2ccc3c(c2)OCCO3)c1C#N [Example 1307, (S)-4-(4-(2-cyano-3-(2,3-dihydrobenzo[b][1,4]dioxin-6-yl)benzyloxy)-2-((5-cyanopyridin-3-yl)methoxy)-5-methylbenzylamino)-3-hydroxybutanoic acid], which IC50 (value given as range class) is on record?
**A.** 0.6 to 10 nM

**Q.** How did the IC50 (value given as range class) turn out when Cc1c(COc2ccc(CN[C@@H](C(=O)O)[C@@H](C)O)c(OCc3cccc(C#N)c3)c2)cccc1-c1ccccc1 [Example 1013, (2R,3R)-2-((2-((3-cyanobenzyl)oxy)-4-((2-methyl-[1,1′-biphenyl]-3-yl)methoxy)benzyl)amino)-3-hydroxybutanoic acid] was run?
**A.** 0.6 to 10 nM

**Q.** Which IC50 (value given as range class) does the source give for CC(=O)NCCNCc1ccc(OCc2cccc(-c3ccccc3)c2C)cc1OCc1cccc(F)c1F [Example 1071, N-(2-((2-((2,3-difluorobenzyl)oxy)-4-((2-methyl-[1,1′-biphenyl]-3-yl)methoxy)benzyl)amino)ethyl)acetamide] here?
**A.** 100 to 20000 nM

**Q.** For Cc1c(COc2cc(OCc3cccc(C#N)c3)c(CN[C@@H](Cc3cncn3C)C(=O)O)cc2Cl)cccc1-c1ccc2c(c1)OCCO2 [Example 1207, (S)-2-((5-chloro-2-((3-cyanobenzyl)oxy)-4-((3-(2,3-dihydrobenzo[b][1,4]dioxin-6-yl)-2-methylbenzyl)oxy)benzyl)amino)-3-(1-methyl-1H-imidazol-5-yl)propanoic acid], which IC50 (value given as range class) is on record?
**A.** 10 to 100 nM

**Q.** For Cc1cc(CN2CCCC[C@@H]2C(=O)O)c(OCc2cncc(C#N)c2)cc1OCc1cccc(-c2ccc3c(c2)OCCO3)c1Cl [Example 1155, (R)-1-(4-(2-chloro-3-(2,3-dihydrobenzo[b][1,4]dioxin-6-yl)benzyloxy)-2-((5-cyanopyridin-3-yl)methoxy)-5-methylbenzyl)piperidine-2-carboxylic acid], which IC50 (value given as range class) is on record?
**A.** 0.6 to 10 nM

**Q.** How did the IC50 (value given as range class) turn out when Cc1c(COc2cc(OCc3cncc(C#N)c3)c(CNCC(=O)O)cc2Cl)cccc1-c1ccc2c(c1)OCCO2 [Example 2013, 2-((5-chloro-2-((5-cyanopyridin-3-yl)methoxy)-4-((3-(2,3-dihydrobenzo[b][1,4]dioxin-6-yl)-2-methylbenzyl)oxy)benzyl)amino)acetic acid] was run?
**A.** 0.6 to 10 nM

**Q.** With CC(=O)NCCNCc1ccc(OCc2cccc(-c3ccccc3)c2C)cc1OCc1ccc(-c2ccccc2C#N)cc1 [Example 1089, N-(2-((2-((2′-cyano-[1,1′-biphenyl]-4-yl)methoxy)-4-((2-methyl-[1,1′-biphenyl]-3-yl)methoxy)benzyl)amino)ethyl)acetamide] as the molecule, how does the IC50 (value given as range class) read?
**A.** 100 to 20000 nM

**Q.** Cc1c(COc2cc(OCc3cccc(C#N)c3)c(CNC(CO)(C(=O)O)C(C)C)cc2Cl)cccc1-c1ccc2c(c1)OCCO2 (stereo not shown) [Example 1214, 2-((5-chloro-2-((3-cyanobenzyl)oxy)-4-((3-(2,3-dihydrobenzo[b][1,4]dioxin-6-yl)-2-methylbenzyl)oxy)benzyl)amino)-2-(hydroxymethyl)-3-methylbutanoic acid] was tested. Which IC50 (value given as range class) did it give?
**A.** 0.6 to 10 nM

**Q.** Which IC50 (value given as range class) does the source give for CC(=O)NCCNCc1ccc(OCc2cccc(-c3ccccc3)c2C)cc1OCc1cccc(Cl)c1F [Example 1072, N-(2-((2-((3-chloro-2-fluorobenzyl)oxy)-4-((2-methyl-[1,1′-biphenyl]-3-yl)methoxy)benzyl)amino)ethyl)acetamide] here?
**A.** 100 to 20000 nM

**Q.** How did the IC50 (value given as range class) turn out when CSCC[C@H](NCc1cc(Cl)c(OCc2cccc(-c3ccc4c(c3)OCCO4)c2C)cc1OCc1cccc(C#N)c1)C(=O)O [Example 1202, (S)-2-((5-chloro-2-((3-cyanobenzyl)oxy)-4-((3-(2,3-dihydrobenzo[b][1,4]dioxin-6-yl)-2-methylbenzyl)oxy)benzyl)amino)-4-(methylthio)butanoic acid] was run?
**A.** 10 to 100 nM

**Q.** With CC(=O)NCCNCc1ccc(OCc2cccc(-c3ccccc3)c2C)cc1OCc1ccc(S(C)(=O)=O)cc1 [Example 1084, N-(2-((4-((2-methyl-[1,1′-biphenyl]-3-yl)methoxy)-2-((4-(methylsulfonyl)benzyl)oxy)benzyl)amino)ethyl)acetamide] as the molecule, how does the IC50 (value given as range class) read?
**A.** 100 to 20000 nM

**Q.** With CC[C@H](NCc1cc(Cl)c(OCc2cccc(-c3ccc4c(c3)OCCO4)c2C)cc1OCc1cccc(C#N)c1)C(=O)O [Example 1201, (S)-2-((5-chloro-2-((3-cyanobenzyl)oxy)-4-((3-(2,3-dihydrobenzo[b][1,4]dioxin-6-yl)-2-methylbenzyl)oxy)benzyl)amino)butanoic acid] as the molecule, how does the IC50 (value given as range class) read?
**A.** 0.6 to 10 nM

**Q.** Which IC50 (value given as range class) does the source give for CC(=O)NCCNCc1ccc(OCc2cccc(-c3ccccc3)c2C)cc1OCc1cccc(Oc2ccccc2F)c1 [Example 1077, N-(2-((2-((3-(2-fluorophenoxyl)benzyl)oxy)-4-((2-methyl-[1,1′-biphenyl]-3-yl)methoxy)benzyl)amino)ethyl)acetamide] here?
**A.** 100 to 20000 nM

**Q.** COc1cc(COc2cc(OCc3cccc(-c4ccccc4)c3C)ccc2CNCCNC(C)=O)cc(OC)c1 [Example 1107] was tested. Which IC50 (value given as range class) did it give?
**A.** 100 to 20000 nM

**Q.** With Cc1cc(CN2CCCC[C@H]2C(=O)O)c(OCc2cccnc2)cc1OCc1cccc(-c2ccc3c(c2)OCCO3)c1C [Example 1279, (S)-1-(4-((3-(2,3-dihydrobenzo[b][1,4]dioxin-6-yl)-2-methylbenzyl)oxy)-5-methyl-2-(pyridin-3-ylmethoxy)benzyl)piperidine-2-carboxylic acid] as the molecule, how does the IC50 (value given as range class) read?
**A.** 0.6 to 10 nM
